Test results from patent US8393321B2, “Drug delivery system for conscious sedation” (Piramal Critical Care, Inc., priority 2001, dated 2013).
Like-named read-outs stand apart in the source and are kept apart here.

Columns and labels:
patients [1] = assay: Conscious sedation (CS) level, MAC equivalent of 70% nitrous oxide; type: in vivo, human
Procedure: The concentration of oxygen in the atmosphere approximates 21%. […] The most common ratio is 70% N2O/30% oxygen, although some delivery systems maintain 50% oxygen.
The potency of anesthetic agents is measured by the minimum alveolar concentration of an anesthetic producing immobility in 50% of patients, defined as 39 year old males, undergoing surgical incision (“MAC”). […] In present inhalant conscious sedation systems, nitrous oxide is delivered in conjunction with a minimum of 30% oxygen to insure the patient maintains a sufficient level of oxygen. […] For this description a MAC equivalent of 70% nitrous oxide will be used for comparison with other inhalants, as shown in Table 2.

patients [2] = conditions: in 100% oxygen for middle-aged men, cited from earlier work
[3] = soda lime (calcium hydroxide) and/or UV light; cited from earlier work
patient = conditions: conscious sedation; cited from earlier work
patients [4] = conditions: N2O with oxygen; cited from earlier work

| Structure (SMILES) | Implied CS Level (patients [1]; in vivo) | MAC (patients [2]) | decomposition in presence of soda lime and/or UV light [3] | Abuse Potential (patient) | Safety Profile (patient) | further results |
| --- | --- | --- | --- | --- | --- | --- |
| FCOC(C(F)(F)F)C(F)(F)F [Sevoflurane] | 1.27% | 2.00% | decompose | – | – | – |
| FC(F)OC(Cl)C(F)(F)F (stereo not shown) [Isoflurane] | 0.73% | 1.15% | – | – | – | – |
| FC(F)OC(F)(F)C(F)Cl (stereo not shown) [Enflurane] | 1.07% | 1.68% | – | – | – | – |
| FC(F)(F)C(Cl)Br (stereo not shown) [Halothane] | 0.48% | 0.75% | decompose | – | – | – |
| FC(F)OC(F)C(F)(F)F (stereo not shown) [Desflurane] | 3.82% | 6.00% | – | – | – | – |
| COC(F)(F)C(Cl)Cl [Methoxyflurane] | – | 0.16% | decompose | – | – | Implied CS Level (patients [1]; MAC equivalent of 70% nitrous oxide (.636)): 0.11%; MAC (patients [2]; listed as methoxyflurane): 0.16% |
| Cc1ncc2n1-c1ccc(Cl)cc1C(c1ccccc1F)=NC2 [IV Midazolam, Midazolam] | – | – | – | Controlled | Moderate | – |
| [N-]=[N+]=O [Nitrous Oxide] | 70.00% | 110.00% | – | Recre- | Teratogenic | MAC Equivalent (patients [1]; in vivo): .636; Minimum Alveolar Content (MAC) of 70% N2O/30% oxygen mixture (patients [1]; in vivo): 0.636 MAC; MAC (patients [2]; listed as nitrous oxide): 110%; mixture concentration at which conscious sedation occurs in most patients (patients [4]): 70% |
| CN1C(=O)CN=C(c2ccccc2)c2cc(Cl)ccc21 [IV Diazepam, Diazepam] | – | – | – | Controlled | Moderate | – |
